# Target: Short transient receptor potential channel 6 (Mus musculus) (UniProt Q61143)
# Experiment: TRPC6 inhibitor potency, dose response, cell-based, mouse TRPC6, HEK293, membrane potential (AID 2696)
# Details: TRPC6-expressing HEK293 cells, membrane potential dye fluorescence, acetylcholine-stimulated
# Sequence of Short transient receptor potential channel 6 (Mus musculus) (Q61143 whole entry, looked up): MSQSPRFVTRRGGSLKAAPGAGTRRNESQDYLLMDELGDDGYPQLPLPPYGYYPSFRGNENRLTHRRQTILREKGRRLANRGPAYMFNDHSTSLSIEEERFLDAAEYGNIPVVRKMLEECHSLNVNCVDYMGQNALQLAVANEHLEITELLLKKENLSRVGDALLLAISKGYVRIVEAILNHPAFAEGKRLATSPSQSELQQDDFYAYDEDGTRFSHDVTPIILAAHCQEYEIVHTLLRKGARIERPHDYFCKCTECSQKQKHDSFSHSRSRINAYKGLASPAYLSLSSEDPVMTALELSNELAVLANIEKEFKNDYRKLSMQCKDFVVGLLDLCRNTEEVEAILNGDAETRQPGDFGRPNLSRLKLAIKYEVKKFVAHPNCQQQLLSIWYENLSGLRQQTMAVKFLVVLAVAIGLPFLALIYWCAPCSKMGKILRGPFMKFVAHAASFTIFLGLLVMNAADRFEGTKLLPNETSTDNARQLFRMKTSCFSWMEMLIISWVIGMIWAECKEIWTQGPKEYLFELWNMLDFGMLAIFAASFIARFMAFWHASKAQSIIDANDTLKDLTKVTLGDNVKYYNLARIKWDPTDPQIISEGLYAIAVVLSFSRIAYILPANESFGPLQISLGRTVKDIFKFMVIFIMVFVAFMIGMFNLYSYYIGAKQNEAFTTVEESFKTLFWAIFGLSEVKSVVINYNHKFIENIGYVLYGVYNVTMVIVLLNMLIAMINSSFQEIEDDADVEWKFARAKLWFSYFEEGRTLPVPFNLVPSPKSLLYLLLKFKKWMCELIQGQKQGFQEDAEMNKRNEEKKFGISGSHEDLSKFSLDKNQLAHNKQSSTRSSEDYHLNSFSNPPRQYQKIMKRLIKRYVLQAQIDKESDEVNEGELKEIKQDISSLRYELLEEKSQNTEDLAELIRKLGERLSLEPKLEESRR
row,Compound,IC50 [µM]
1,O=C(CCCOc1ccc(Cl)cc1Cl)N1CCN(c2ccccn2)CC1,63.1
2,COc1ccc(OC)c2sc(N(CCN(C)C)C(=O)c3ccc4ccccc4c3)nc12,70.8
3,C[N+]1(C)C2CCC1CC(OC(=O)C(CO)c1ccccc1)C2 (stereo not drawn),0.07
4,Cc1cccc(CCNCc2cc3cccc(C)c3[nH]c2=O)c1,50.1
5,CCOC(=O)C1CCCN(C(=O)c2cc3c(C)nc4ccccc4c3o2)C1 (stereo not drawn),50.1
6,Cn1c(NCc2c[nH]c3ccccc23)nc2ccccc21,50.1
7,N#Cc1c(N2CCNCC2)nc(-c2ccco2)c2c1CCCC2,44.7
8,CCCCCOC(=O)c1ccc(NC(=O)c2ccco2)cc1,70.8
9,c1ccc2c(c1)CC1CNCc3cccc(c31)S2 (stereo not drawn),70.8
10,CCOCCN1CCN(C2c3ccccc3CSc3ccccc32)CC1 (stereo not drawn),50.1
11,CC1=NN(c2ccccc2)C(=O)/C1=C/C=C/c1ccc(N(C)C)cc1,44.7
12,Nc1c2ccccc2nc2ccccc12,70.8
13,C[N+](C)(N)CCOC(=O)C(O)(c1ccccc1)C1CCCCC1 (stereo not drawn),0.32
14,CC1(C)CC(N=c2cc(-c3ccccc3)oc3ccc(Cl)cc23)CC(C)(C)N1,50.1
15,CC(Cc1ccccc1Sc1ccc(O)cc1)N(C)C (stereo not drawn),31.6
16,Brc1ccc(-c2c[n+]3c(n2-c2ccccc2)SCC3)cc1,50.1
17,CC[N+](CC)(CC)CCCOC(=O)C(O)(c1ccccc1)C1CCCCC1 (stereo not drawn),0.06
18,CC(C)c1ccc(N2C(=O)CC(Sc3nc4ccccc4o3)C2=O)cc1 (stereo not drawn),44.7
19,Cc1cccn2c(=O)c3cc(C(=O)NCc4ccco4)c(=N)n(C(C)C)c3nc12,44.7
20,Cc1cc(N(CCO)CCO)ccc1N=Nc1cc(F)ccc1F,50.1
21,COC(=O)c1[nH]c2ccc(Br)cc2c1NC(=O)CN1CCN(C2CCCCC2)CC1,44.7
22,CCCCNC(=O)c1cc2c(=O)n3cccc(C)c3nc2n(Cc2ccncc2)c1=N,44.7
23,CC(Cc1ccccc1Sc1ccccc1O)N(C)C (stereo not drawn),39.8
24,Cc1cc(C)c2sc(N(CCCN(C)C)C(=O)c3ccc(Br)s3)nc2c1,63.1
25,Cc1c(C)n(Cc2ccccc2)c2ccc(C(=O)OCCCN(C)C)cc12,44.7
26,CCCCCCCCCCCCn1ccc(=N)cc1,35.5
27,CCOc1ccc(NC(=O)c2c(NC(=O)CN3CCN(C)CC3)sc3c2CCC3)cc1,44.7
28,COCC(C)NC(=O)c1ccc(CN2CCc3ccccc3C2)cc1 (stereo not drawn),44.7
29,N=c1sccn1CC(=O)Nc1cc(Cl)ccc1Oc1ccccc1,44.7
30,CN(c1ccccc1)P(=O)(N(C)c1ccccc1)N(C)c1ccccc1,44.7

# Further molecules by falling IC50, results first:
row,IC50 [µM],Compound
1,44.7,Fc1ccc([C@@H]2CCNC[C@H]2COc2ccc3c(c2)OCO3)cc1
2,44.7,CCOC(=O)N1CCC(N2Cc3cccc(C(=O)Nc4ccc(CC)cc4)c3C2=O)CC1
3,44.7,Cc1ccccc1OCC(=O)NCCS(=O)(=O)N1CCN(c2ccc(F)cc2)CC1
4,44.7,CCN(CC)CCSc1nnc2c3ccccc3n(Cc3ccccc3)c2n1
5,44.7,Nc1nc(N2CCN(C/C=C/c3ccccc3)CC2)nc2ccccc12
6,44.7,N=c1c(C(=O)NCC2CCCO2)cc2c(=O)n3ccccc3nc2n1Cc1ccccc1Cl (stereo not drawn)
7,44.7,CC1CCN(CC(C)CNC(=O)c2cc(-c3ccccn3)nc3ccccc23)CC1 (stereo not drawn)
8,44.7,CCCCC(O)(CCN1CCOCC1)c1ccc(Cl)cc1 (stereo not drawn)
9,39.8,COCCNC(=O)c1cc2c(=O)n3cccc(C)c3nc2n(Cc2ccncc2)c1=N
10,39.8,Nc1nc(Nc2cccc(F)c2)nc2ccccc12
11,39.8,Cc1c(CCOC(=O)C23CC4CC(CC(C4)C2)C3)sc[n+]1Cc1ccccc1
12,39.8,CN(C)CCN(C(=O)c1cccs1)c1nc2cc3c(cc2s1)OCCO3
13,35.5,CCN(CC)CCn1c(=N)n(CCOc2ccccc2)c2ccccc21
14,31.6,N#CC(c1cccc(Cl)c1)c1ccc2c(C(F)(F)F)cc(C(F)(F)F)nc2n1 (stereo not drawn)
15,31.6,CCN(CC)CCn1c(NC(=O)c2ccccc2O)nc2ccccc21
16,31.6,COC(=O)c1ccc(Nc2cc(C)nc3ccc(C)cc23)cc1
17,17.8,Cc1ccc(N2C(=O)CSC2c2c(F)cccc2Cl)cc1 (stereo not drawn)
18,15.8,Oc1ccc(CN2CCc3ccccc3C2)c2cccnc12
19,15.8,CCN(CC)CCOC(=O)C1(c2ccccc2)CCCC1
20,14.1,CCOc1ccc(CNc2ccc3c(c2)ncn3C(C)(C)C)cc1
21,14.1,Cc1cc(C)n(-c2nc(NCCCN(C)C)c3c4c(sc3n2)COC(C)(C)C4)n1
22,12.6,CC[N+]1(C)CCC(=C2c3ccccc3CC(=O)c3sccc32)CC1 (stereo not drawn)
23,12.6,CCOC(=O)c1sc(=S)n(-c2ccccc2Cl)c1SC
24,11.2,CCN(CC)CCC#CC(O)(c1ccccc1)C1CCCCC1 (stereo not drawn)
25,2,CC(C)[N+](C)(C)CC#CC(O)(c1ccccc1)c1ccccc1
26,1.12,OC(C#CCN1CCCCC1)(c1ccccc1)c1ccccc1
27,0.5,Cc1cc(-n2cccn2)ccc1CN1CCN(C2CCCC2)C(CCO)C1 (stereo not drawn)
28,0.08,CN1[C@@H]2CC[C@H]1CC(OC(=O)C(CO)c1ccccc1)C2 (stereo partly drawn)

# From PubChem BioAssay AID2696 (Johns Hopkins Ion Channel Center, 2010)
